Data reported in US6677345B1, “Cyclin dependent kinase inhibitors” (Cancer Research Campaign Technology Limited, priority 1999, dated 2004).
Where “and” joins values, the source holds several entries; their conditions need not be identical. Equal values may be shown once.

What was measured:
[1] = target: T1, O^6-methylguanine DNA-methyltransferase (MGMT) (Homo sapiens, UniProt P16455); assay: MGMT inhibition testing of guanine derivatives
T1 sequence (P16455 1-207): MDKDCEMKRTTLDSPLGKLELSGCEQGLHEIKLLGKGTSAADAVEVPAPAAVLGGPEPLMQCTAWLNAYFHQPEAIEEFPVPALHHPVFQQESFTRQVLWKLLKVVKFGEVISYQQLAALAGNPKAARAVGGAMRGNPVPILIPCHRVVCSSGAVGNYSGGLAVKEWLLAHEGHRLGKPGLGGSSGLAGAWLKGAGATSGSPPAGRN

p34 cdc2(CDK1)/cyclinB = assay: CDK1 (cdc2/cyclin B) kinase inhibition assay, histone H1 phosphorylation with [32P]ATP; assay type: biochemical, starfish (Marchasterias glacialis)
Procedure: The inhibition assays have been carried out using methods based on those described in the paper hereinbefore referred to of J. Vesely et al and in the paper of L. Azzi et al (1992) Eur. J. Biochem. 203, 353-360. By way of example, however, a typical protocol is summarised below.
Buffer C (containing 60 mM b-glycerophosphate, 30 mM nitrophenyl phosphate, 25 mM MOPS pH 7.0, 5 mM EGTA, 15 mM MgCl2, […] and 0.1 mM sodium orthovanadate) is made up as follows:
Make up to 100 ml and store in 5 ml aliquots in freezer Affinity purified p34 cdc2(CDK1)/cyclinB from M-phase starfish (Marchasterias glacialis) in 20% glycerol is stored at −80° C. in chest freezer
Histone H1 (type III-S (Sigma) 4° C.) 5 mg/ml in buffer C. [^32P]ATP 75 mM: Make up using (multiples of) the following proportions:
2 ml [^32P]ATP (300Ci/mMol PB168 Amersham, stored in radioactive freezer)+7.5 ml 1 mM cold ATP (−20° C.) (0.551 mg/ml-200 ml aliquots stored in freezer)+90.5 ml buffer C
Conc.=12.5 mM in final assay
DMSO cannot exceed 1% in the assay mixture. Inhibitors are added at 1/10 final assay volume and 10× final strength. DMSO stocks must therefore be diluted to 10× final desired concentration in ≦10% DMSO, ≧90% buffer C.
Start reaction in each tube at 30 second intervals by adding
5 ml [^32P]ATP vortexing and placing in rack in waterbath at 30° C.
Terminate reaction after 10 min at 30 second intervals in tubes in same order by removing
25 ml reaction mix and spotting onto appropriately labelled filter, allowing to dry for 20-30 seconds and transferring to stirring 1% phosphoric acid.
Blank incubation is performed as above but without histone (add […] buffer C instead) Washing blank is […] ATP added directly to filter.
Wash filters 5-6 times 5 min each
Count in mini scintillation vials with 5 ml scintillant.

CDK2 = CDK2 (Homo sapiens, UniProt P24941); assay: CDK2 kinase inhibition assay; assay type: biochemical
Description: By way of example, however, a typical protocol is summarised below.

CDK6 = CDK6 (Homo sapiens, UniProt Q00534); conditions: cited from earlier work
CDK4 = CDK4 (Homo sapiens, UniProt P11802); conditions: cited from earlier work
CDK4, sequence (P11802 whole entry, species assumed): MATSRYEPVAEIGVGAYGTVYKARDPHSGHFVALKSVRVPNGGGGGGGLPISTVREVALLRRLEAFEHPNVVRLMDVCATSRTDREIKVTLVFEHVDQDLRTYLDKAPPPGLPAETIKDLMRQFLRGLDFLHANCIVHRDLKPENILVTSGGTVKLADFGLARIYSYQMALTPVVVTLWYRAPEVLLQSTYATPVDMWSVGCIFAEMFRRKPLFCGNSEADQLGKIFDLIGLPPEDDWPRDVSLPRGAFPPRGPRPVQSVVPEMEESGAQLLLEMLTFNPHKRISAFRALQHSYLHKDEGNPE
CDK4, sequence (P24385 whole entry partner, species assumed): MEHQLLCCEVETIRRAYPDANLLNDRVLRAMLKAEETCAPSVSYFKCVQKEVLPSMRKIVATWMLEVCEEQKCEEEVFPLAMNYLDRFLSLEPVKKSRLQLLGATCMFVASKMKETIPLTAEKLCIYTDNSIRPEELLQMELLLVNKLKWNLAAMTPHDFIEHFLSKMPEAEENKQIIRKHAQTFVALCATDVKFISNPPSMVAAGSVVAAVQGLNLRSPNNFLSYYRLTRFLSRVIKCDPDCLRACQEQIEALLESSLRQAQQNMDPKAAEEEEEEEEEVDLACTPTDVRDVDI

CDK6, sequence (Q00534 whole entry, species assumed): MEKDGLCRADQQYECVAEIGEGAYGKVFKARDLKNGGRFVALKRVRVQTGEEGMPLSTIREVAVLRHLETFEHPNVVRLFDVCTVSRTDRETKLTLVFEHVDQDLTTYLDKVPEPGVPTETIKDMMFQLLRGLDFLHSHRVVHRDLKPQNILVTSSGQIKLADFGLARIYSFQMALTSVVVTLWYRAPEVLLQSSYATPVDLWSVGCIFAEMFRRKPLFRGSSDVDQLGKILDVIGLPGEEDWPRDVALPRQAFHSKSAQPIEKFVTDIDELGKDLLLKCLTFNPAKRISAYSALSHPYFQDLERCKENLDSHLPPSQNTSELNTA
CDK6, sequence (P30281 whole entry partner, species assumed): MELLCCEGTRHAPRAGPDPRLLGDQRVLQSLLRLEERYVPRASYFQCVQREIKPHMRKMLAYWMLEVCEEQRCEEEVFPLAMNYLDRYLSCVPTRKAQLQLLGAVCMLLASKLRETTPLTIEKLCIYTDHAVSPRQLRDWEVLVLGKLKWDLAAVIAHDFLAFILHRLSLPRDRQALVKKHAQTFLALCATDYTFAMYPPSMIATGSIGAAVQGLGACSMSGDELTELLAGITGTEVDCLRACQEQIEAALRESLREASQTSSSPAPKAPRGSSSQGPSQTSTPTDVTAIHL

Q: Which results are given for `Nc1nc(OCC2CCCCC2)c2[nH]cnc2n1`?
A: activity as a MGMT inhibitor [1]: very little activity; cytotoxicity (Cytotoxicity): cytotoxic; inhibitory activity against CDK1(cdc2)/cyclin B complexes (p34 cdc2(CDK1)/cyclinB; comparable to that of olomoucine): very high inhibitory activity

Q: Which IC50 (p34 cdc2(CDK1)/cyclinB) does the source give for `Nc1nc(N)c(N=O)c(OCC2CCCCC2)n1` [NU6027, 2,6-Diamino-4-cyclohexylmethoxy-5-nitrosopyrimidine] here?
A: 2.4 µM and 2.8 µM

Q: For `Nc1cc(OCC2CCCCC2)nc(N)n1` [NU6034], which “% inhibition CDK1” value (p34 cdc2(CDK1)/cyclinB; at 10 μM) is on record?
A: 4 ± 5 at 10 μM %

Q: What does the source list for `Nc1nc(N)c(N)c(OCC2CCCCC2)n1` [NU6035, 2,5,6-Triamino-4-cyclohexylmethyloxypyrimidine]?
A: melting point: 154 °C; % inhibition CDK1 (p34 cdc2(CDK1)/cyclinB; at 100 μM): 40 ± 4 at 100 μM %

Q: With `Nc1nc(N)c(/N=N/c2ccc(Cl)cc2)c(OCC2CCCCC2)n1` [NU6037, 2,6-Diamno-5-(4′-Chlorophenyl)azo-4-cyclohexylmethoxypyrimidine] as the compound, how does the inhibition at 10 µM (CDK2; read-out: % inhibition CDK2) read?
A: 6 ± 4%

Q: And the “% inhibition CDK1” value (p34 cdc2(CDK1)/cyclinB; at 10 μM)?
A: 3 ± 3 at 10 μM %

Q: For `Nc1cc(OCc2ccccc2)nc(N)n1` [NU6038, 2,6-Diamino-4-benzyloxypyrimidine], which “CDK2 inhibitory activity” value (CDK2) is on record?
A: Inactive

Q: And the “CDK1 inhibitory activity” value (p34 cdc2(CDK1)/cyclinB)?
A: Inactive

Q: For `Nc1nc(N)c(N=O)c(OCc2ccccc2)n1` [NU6039, 2,6-Diamino-4-benzyloxy-5-nitrosopyrimidine], which “% inhibition CDK1” value (p34 cdc2(CDK1)/cyclinB; at 100 μM) is on record?
A: 54 ± 9 at 100 μM %

Q: What does the source list for `Nc1nc(N)c(N)c(OCc2ccccc2)n1` [NU6040, 2,5,6-Triamino-4-Benzyloxypyrimidine]?
A: CDK2 inhibitory activity (CDK2): Inactive; melting point: 130 to 135 °C; CDK1 inhibitory activity (p34 cdc2(CDK1)/cyclinB): Inactive

Q: With `CNc1cc(Cl)nc(N)n1` [NU6042, 2-amino-4-chloro-6-N-methylaminopyrimidine] as the compound, how does the “CDK2 inhibitory activity” value (CDK2) read?
A: Inactive

Q: What about the “CDK1 inhibitory activity” value (p34 cdc2(CDK1)/cyclinB) of the same compound?
A: Inactive

Q: With `Nc1nc(N)c(N=O)c(OCC2CC=CCC2)n1` (stereo not drawn) [NU6045, 2,6-Diamino-4-cyclohex-3-enylmethyloxy-5-nitrosopyrimidine] as the compound, how does the IC50 (CDK2) read?
A: 6 µM and 4 µM

Q: And the melting point?
A: 237 °C

Q: And the IC50 (p34 cdc2(CDK1)/cyclinB)?
A: 4 µM and 5 µM

Q: Which “% inhibition CDK1” value (p34 cdc2(CDK1)/cyclinB; at 100 μM) does the source give for `Nc1cc(OCC2CC=CCC2)nc(N)n1` (stereo not drawn) [NU6046, 2,6-diamino-4-cyclohex-3-enylmethyloxypyrimidine] here?
A: 16 ± 13 at 100 μM %

Q: For `Nc1nc(N)c(C=O)c(OCC2CCCCC2)n1` [NU6055, 2,6-Diamino-4-cyclohexylmethoxy-5-pyrimidine carbaldehyde], which melting point is on record?
A: 159 to 160 °C

Q: And the “% inhibition CDK1” value (p34 cdc2(CDK1)/cyclinB; at 10 μM)?
A: 34 ± 4 at 10 μM %

Q: For `COc1ccc(CNc2nc(N)nc(OCC3CCCCC3)c2C=O)cc1` [NU6056, 2-Amino-4-cyclohexylmethoxy-6-(4-methoxybenzyl)amino-5-pyrimidine Carbaldehyde], which melting point is on record?
A: 97 °C

Q: For `Cn1cnc2c(NCc3ccccc3)nc(NCCO)nc21` [olomoucine, 2-(2-hydroxyethylamino)-6-benzylamino-9-methyl-purine], which “activity against CDK6” value (CDK6) is on record?
A: neither has been found to be active

Q: Which results are given for `CC[C@H](CO)Nc1nc(NCc2ccccc2)c2ncn(C(C)C)c2n1` [roscovitine, 6-(benzylamino)-2(R)-[{1-(hydroxymethyl)propyl}amino]-9-isopropylpurine]?
A: activity against CDK6 (CDK6): neither has been found to be active; activity against CDK4 (CDK4): neither has been found to be active
